# Literature values as cited in Sander's compilation of Henry's law constants (doi:10.1021/je049850a).
# Assay: Henry solubility constant Hcp at 298.15 K (mol/(m3 Pa))
# Conditions: reference: Plyasunov et al. (2004); cited value
row,SMILES,Henry solubility constant Hcp
1,CCCOC(=O)CCC [propyl butanoate],0.022
2,CC(=O)OCC(C)C [2-methylpropyl ethanoate],0.024
3,"COC(=O)C(C)(C)C [methyl 2,2-dimethylpropanoate]",0.0095
4,CCCCCCCCC(=O)OC [methyl nonanoate],0.0082
5,CCCCCC(=O)OC [methyl hexanoate],0.026
6,CC(C)COC(=O)C(C)C [2-methylpropyl 2-methylpropanoate],0.0078
7,CCOC(=O)C(C)CC (stereo not drawn) [ethyl 2-methylbutanoate],0.014
8,CCCCC(=O)OC [methyl pentanoate],0.03
9,CCCCC(=O)OCC [ethyl pentanoate],0.023
10,CCOC(=O)CC(C)C [ethyl 3-methylbutanoate],0.014
11,CCC(=O)OC [methyl propanoate],0.055
12,CCCCOC(C)=O [butyl ethanoate],0.035
13,COC(=O)C(C)C [methyl 2-methylpropanoate],0.026
14,CCCCCCC(=O)OC [methyl heptanoate],0.018
15,CCCCCOC(=O)CC [pentyl propanoate],0.019
16,CC(=O)OC(C)C [2-propyl ethanoate],0.033
17,CCOC(=O)CC [ethyl propanoate],0.041
18,CCCCCCCC(=O)OC [methyl octanoate],0.012
19,CCCCCCCCCC(=O)OCC [ethyl decanoate],0.012
20,CCCC(=O)OC(C)C [2-propyl butanoate],0.018
21,CCCCCCOC=O [hexyl methanoate],0.01
22,CCOC(=O)C(C)C [ethyl 2-methylpropanoate],0.017
23,CCCCOC(=O)CCC [butyl butanoate],0.016
24,CCC(C)OC(C)=O (stereo not drawn) [2-butyl ethanoate],0.023

row,SMILES,Henry solubility constant Hcp
1,CC(=O)OCCC(C)C [3-methylbutyl ethanoate],0.02
2,CC(C)COC=O [(2-methylpropyl)-methanoate],0.016
3,CCCCOC(=O)CCCC [butyl pentanoate],0.0098
4,CCCC(=O)OC [methyl butanoate],0.042
5,CCCCOC=O [butyl methanoate],0.019
6,CCCOC=O [propyl methanoate],0.028
7,CCOC=O [ethyl methanoate],0.035
8,CCC(=O)OCC(C)C [(2-methylpropyl)-propanoate],0.015
9,CCCOC(=O)CC [propyl propanoate],0.029
10,CCCCCCOC(C)=O [hexyl ethanoate],0.017
11,CCCCCCCC(=O)OCC [ethyl octanoate],0.017
12,CCCCCOC=O [pentyl methanoate],0.016
13,CCC(=O)OC(C)C [isopropyl propanoate],0.018
14,CCCCCC(=O)OCC [ethyl hexanoate],0.019
15,CC(C)OC=O [isopropyl methanoate],0.019
16,CC(C)CCOC=O [3-methylbutyl methanoate],0.012
17,"CC(=O)OC(C)(C)C [1,1-dimethylethyl ethanoate]",0.011
18,CCCCOC(=O)CC [butyl propanoate],0.02
19,"CCOC(=O)C(C)(C)C [ethyl 2,2-dimethylpropanoate]",0.0057
20,CCOC(C)=O [ethyl ethanoate],0.063
21,CCCCCOC(C)=O [pentyl ethanoate],0.027
22,CCCC(=O)OCC [ethyl butanoate],0.029
23,CCCOC(C)=O [propyl ethanoate],0.045
24,COC(C)=O [methyl ethanoate],0.081
